Measured values: ChEMBL document CHEMBL4610120, “New Broad-Spectrum Antibiotics Containing a Pyrrolobenzodiazepine Ring with Activity against Multidrug-Resistant Gram-Negative Bacteria” (J Med Chem, 2020)
≈ marks a conversion by molar mass, not a printed value.

Tested on: not listed separately
Test: Selectivity ratio of cytotoxicity against human WI38 cells to MIC for Klebsiella pneumoniae M6
Type: toxicity, cell-based
Conditions: not given

SMILES	selectivity ratio
COc1cc2c(cc1OCCCC(=O)Nc1cc(C(=O)Nc3ccc4sc(C(=O)N5CCCCC5)cc4c3)n(C)c1)N=C[C@@H]1CCCN1C2=O	10
COc1cc2c(cc1OCCCC(=O)Nc1cc(C(=O)Nc3ccc4oc(C(=O)N5CCOCC5)cc4c3)n(C)c1)N=C[C@@H]1CCCN1C2=O	10

Tested on: Staphylococcus aureus
Test: Antibacterial activity against methicillin resistant Staphylococcus aureus NCTC 13616 by microdilution broth method
Type: functional
Conditions: not given

SMILES	MIC [µg/mL]
COc1cc2c(cc1OCCCC(=O)Nc1cc(C(=O)Nc3ccc4sc(C(=O)N5CCCCC5)cc4c3)n(C)c1)N=C[C@@H]1CCCN1C2=O	0.5 (≈ 0.718 µM)
COc1cc2c(cc1OCCCC(=O)Nc1cc(C(=O)Nc3ccc4oc(C(=O)N5CCOCC5)cc4c3)n(C)c1)N=C[C@@H]1CCCN1C2=O	≤ 0.125

Tested on: not listed separately
Test: Selectivity ratio of cytotoxicity against human WI38 cells to MIC for methicillin sensitive Staphylococcus aureus NCTC 6571
Type: toxicity, cell-based
Conditions: not given

SMILES	selectivity ratio
COc1cc2c(cc1OCCCC(=O)Nc1cc(C(=O)Nc3ccc4sc(C(=O)N5CCCCC5)cc4c3)n(C)c1)N=C[C@@H]1CCCN1C2=O	100
COc1cc2c(cc1OCCCC(=O)Nc1cc(C(=O)Nc3ccc4oc(C(=O)N5CCOCC5)cc4c3)n(C)c1)N=C[C@@H]1CCCN1C2=O	100

Tested on: not listed separately
Test: Selectivity ratio of cytotoxicity against human WI38 cells to MIC for methicillin resistant Staphylococcus aureus NCTC 13616
Type: toxicity, cell-based
Conditions: not given

SMILES	selectivity ratio
COc1cc2c(cc1OCCCC(=O)Nc1cc(C(=O)Nc3ccc4sc(C(=O)N5CCCCC5)cc4c3)n(C)c1)N=C[C@@H]1CCCN1C2=O	100
COc1cc2c(cc1OCCCC(=O)Nc1cc(C(=O)Nc3ccc4oc(C(=O)N5CCOCC5)cc4c3)n(C)c1)N=C[C@@H]1CCCN1C2=O	100

Tested on: Pseudomonas aeruginosa
Test: Antimicrobial activity against Pseudomonas aeruginosa PAO1 by microdilution broth method
Type: functional
Conditions: not given

SMILES	MIC [µg/mL]
COc1cc2c(cc1OCCCC(=O)Nc1cc(C(=O)Nc3ccc4oc(C(=O)N5CCOCC5)cc4c3)n(C)c1)N=C[C@@H]1CCCN1C2=O	> 128

Tested on: Staphylococcus aureus
Test: Antibacterial activity against methicillin resistant Staphylococcus aureus NCTC 13277 by microdilution broth method
Type: functional
Conditions: not given

SMILES	MIC [µg/mL]
COc1cc2c(cc1OCCCC(=O)Nc1cc(C(=O)Nc3ccc4sc(C(=O)N5CCCCC5)cc4c3)n(C)c1)N=C[C@@H]1CCCN1C2=O	1 (≈ 1.44 µM)

Tested on: not listed separately
Test: Selectivity ratio of cytotoxicity against human WI38 cells to MIC for multidrug-resistant Klebsiella pneumoniae NCTC 13368
Type: toxicity, cell-based
Conditions: not given

SMILES	selectivity ratio
COc1cc2c(cc1OCCCC(=O)Nc1cc(C(=O)Nc3ccc4sc(C(=O)N5CCCCC5)cc4c3)n(C)c1)N=C[C@@H]1CCCN1C2=O	10
COc1cc2c(cc1OCCCC(=O)Nc1cc(C(=O)Nc3ccc4oc(C(=O)N5CCOCC5)cc4c3)n(C)c1)N=C[C@@H]1CCCN1C2=O	10

Tested on: not listed separately
Test: Selectivity ratio of cytotoxicity against human WI38 cells to MIC for multidrug-resistant Pseudomonas aeruginosa NCTC 13437
Type: toxicity, cell-based
Conditions: not given

SMILES	selectivity ratio
COc1cc2c(cc1OCCCC(=O)Nc1cc(C(=O)Nc3ccc4sc(C(=O)N5CCCCC5)cc4c3)n(C)c1)N=C[C@@H]1CCCN1C2=O	10
COc1cc2c(cc1OCCCC(=O)Nc1cc(C(=O)Nc3ccc4oc(C(=O)N5CCOCC5)cc4c3)n(C)c1)N=C[C@@H]1CCCN1C2=O	10

Tested on: Acinetobacter baumannii
Test: Antimicrobial activity against Acinetobacter baumannii ATCC 17978 by microdilution broth method
Type: functional
Conditions: not given

SMILES	MIC [µg/mL]
COc1cc2c(cc1OCCCC(=O)Nc1cc(C(=O)Nc3ccc4sc(C(=O)N5CCCCC5)cc4c3)n(C)c1)N=C[C@@H]1CCCN1C2=O	8 (≈ 11.5 µM)
COc1cc2c(cc1OCCCC(=O)Nc1cc(C(=O)Nc3ccc4oc(C(=O)N5CCOCC5)cc4c3)n(C)c1)N=C[C@@H]1CCCN1C2=O	8 (≈ 11.7 µM)

Tested on: not listed separately
Test: Selectivity ratio of cytotoxicity against human WI38 cells to MIC for methicillin resistant Staphylococcus aureus NCTC 13277
Type: toxicity, cell-based
Conditions: not given

SMILES	selectivity ratio
COc1cc2c(cc1OCCCC(=O)Nc1cc(C(=O)Nc3ccc4sc(C(=O)N5CCCCC5)cc4c3)n(C)c1)N=C[C@@H]1CCCN1C2=O	100
COc1cc2c(cc1OCCCC(=O)Nc1cc(C(=O)Nc3ccc4oc(C(=O)N5CCOCC5)cc4c3)n(C)c1)N=C[C@@H]1CCCN1C2=O	100

Tested on: DNA
Test: Stabilization of 5'-FAM-TAT-ATA-TAG-ATA-TTT-TTT-TAT-CTA-TAT-ATA-3'-TAMRA DNA (unknown origin) assessed as reduction in change in melting temperature at 1:1 to 5:1 ligand to DNA ratio measured after 3 hrs by FRET-based assay relative to control
Type: ADME, nucleic-acid assay
Conditions: not given

SMILES	fold change (FC)
COc1cc2c(cc1OCCCC(=O)Nc1cc(C(=O)Nc3ccc4sc(C(=O)N5CCCCC5)cc4c3)n(C)c1)N=C[C@@H]1CCCN1C2=O	3 to 4
COc1cc2c(cc1OCCCC(=O)Nc1cc(C(=O)Nc3ccc4oc(C(=O)N5CCOCC5)cc4c3)n(C)c1)N=C[C@@H]1CCCN1C2=O	3 to 4

Tested on: not listed separately
Test: Selectivity ratio of cytotoxicity against human WI38 cells to MIC for multidrug-resistant Acinetobacter baumannii AYE
Type: toxicity, cell-based
Conditions: not given

SMILES	selectivity ratio
COc1cc2c(cc1OCCCC(=O)Nc1cc(C(=O)Nc3ccc4sc(C(=O)N5CCCCC5)cc4c3)n(C)c1)N=C[C@@H]1CCCN1C2=O	10
COc1cc2c(cc1OCCCC(=O)Nc1cc(C(=O)Nc3ccc4oc(C(=O)N5CCOCC5)cc4c3)n(C)c1)N=C[C@@H]1CCCN1C2=O	10

Tested on: Enterococcus faecalis
Test: Antibacterial activity against vancomycin sensitive Enterococcus faecalis NCTC 775 by microdilution broth method
Type: functional
Conditions: not given

SMILES	MIC [µg/mL]
COc1cc2c(cc1OCCCC(=O)Nc1cc(C(=O)Nc3ccc4oc(C(=O)N5CCOCC5)cc4c3)n(C)c1)N=C[C@@H]1CCCN1C2=O	≤ 0.125

Tested on: not listed separately
Test: Selectivity ratio of cytotoxicity against human WI38 cells to MIC for vancomycin resistant Enterococcus faecalis NCTC 12201
Type: toxicity, cell-based
Conditions: not given

SMILES	selectivity ratio
COc1cc2c(cc1OCCCC(=O)Nc1cc(C(=O)Nc3ccc4sc(C(=O)N5CCCCC5)cc4c3)n(C)c1)N=C[C@@H]1CCCN1C2=O	100
COc1cc2c(cc1OCCCC(=O)Nc1cc(C(=O)Nc3ccc4oc(C(=O)N5CCOCC5)cc4c3)n(C)c1)N=C[C@@H]1CCCN1C2=O	100

Tested on: Enterococcus faecium
Test: Antibacterial activity against vancomycin resistant Enterococcus faecium NCTC 12204 by microdilution broth method
Type: functional
Conditions: not given

SMILES	MIC [µg/mL]
COc1cc2c(cc1OCCCC(=O)Nc1cc(C(=O)Nc3ccc4sc(C(=O)N5CCCCC5)cc4c3)n(C)c1)N=C[C@@H]1CCCN1C2=O	≤ 0.125
COc1cc2c(cc1OCCCC(=O)Nc1cc(C(=O)Nc3ccc4oc(C(=O)N5CCOCC5)cc4c3)n(C)c1)N=C[C@@H]1CCCN1C2=O	≤ 0.125

Tested on: Enterococcus faecalis
Test: Antibacterial activity against vancomycin resistant Enterococcus faecalis NCTC 12201 by microdilution broth method
Type: functional
Conditions: not given

SMILES	MIC [µg/mL]
COc1cc2c(cc1OCCCC(=O)Nc1cc(C(=O)Nc3ccc4sc(C(=O)N5CCCCC5)cc4c3)n(C)c1)N=C[C@@H]1CCCN1C2=O	≤ 0.125
COc1cc2c(cc1OCCCC(=O)Nc1cc(C(=O)Nc3ccc4oc(C(=O)N5CCOCC5)cc4c3)n(C)c1)N=C[C@@H]1CCCN1C2=O	≤ 0.125

Tested on: not listed separately
Test: Selectivity ratio of cytotoxicity against human WI38 cells to MIC for vancomycin resistant Enterococcus faecium NCTC 12204
Type: toxicity, cell-based
Conditions: not given

SMILES	selectivity ratio
COc1cc2c(cc1OCCCC(=O)Nc1cc(C(=O)Nc3ccc4sc(C(=O)N5CCCCC5)cc4c3)n(C)c1)N=C[C@@H]1CCCN1C2=O	100
COc1cc2c(cc1OCCCC(=O)Nc1cc(C(=O)Nc3ccc4oc(C(=O)N5CCOCC5)cc4c3)n(C)c1)N=C[C@@H]1CCCN1C2=O	100

Tested on: DNA
Test: Stabilization of 5'-FAM-TAT-AGA-TAT-AGA-TAT-TTT-ATA-TCT-ATA-TCT-ATA-3'-TAMRA DNA (unknown origin) assessed as reduction in change in melting temperature at 1:1 to 5:1 ligand to DNA ratio measured after 3 hrs by FRET-based assay relative to control
Type: ADME, nucleic-acid assay
Conditions: not given

SMILES	fold change (FC)
COc1cc2c(cc1OCCCC(=O)Nc1cc(C(=O)Nc3ccc4sc(C(=O)N5CCCCC5)cc4c3)n(C)c1)N=C[C@@H]1CCCN1C2=O	3 to 4
COc1cc2c(cc1OCCCC(=O)Nc1cc(C(=O)Nc3ccc4oc(C(=O)N5CCOCC5)cc4c3)n(C)c1)N=C[C@@H]1CCCN1C2=O	3 to 4

Tested on: not listed separately
Test: Selectivity ratio of cytotoxicity against human WI38 cells to MIC for vancomycin sensitive Enterococcus faecalis NCTC 775
Type: toxicity, cell-based
Conditions: not given

SMILES	selectivity ratio
COc1cc2c(cc1OCCCC(=O)Nc1cc(C(=O)Nc3ccc4sc(C(=O)N5CCCCC5)cc4c3)n(C)c1)N=C[C@@H]1CCCN1C2=O	100
COc1cc2c(cc1OCCCC(=O)Nc1cc(C(=O)Nc3ccc4oc(C(=O)N5CCOCC5)cc4c3)n(C)c1)N=C[C@@H]1CCCN1C2=O	100

Tested on: Staphylococcus aureus
Test: Antibacterial activity against methicillin sensitive Staphylococcus aureus NCTC 6571 by microdilution broth method
Type: functional
Conditions: not given

SMILES	MIC [µg/mL]
COc1cc2c(cc1OCCCC(=O)Nc1cc(C(=O)Nc3ccc4sc(C(=O)N5CCCCC5)cc4c3)n(C)c1)N=C[C@@H]1CCCN1C2=O	≤ 0.125
COc1cc2c(cc1OCCCC(=O)Nc1cc(C(=O)Nc3ccc4oc(C(=O)N5CCOCC5)cc4c3)n(C)c1)N=C[C@@H]1CCCN1C2=O	≤ 0.125

Tested on: not listed separately
Test: Cytotoxicity against human WI38 cells assessed as cell viability at 20 uM measured after 24 hrs by MTT assay relative to control
Type: cell-based, WI-38
Conditions: read-out: Activity

SMILES	viability at 24 h, 20 µM [%]
COc1cc2c(cc1OCCCC(=O)Nc1cc(C(=O)Nc3ccc4sc(C(=O)N5CCCCC5)cc4c3)n(C)c1)N=C[C@@H]1CCCN1C2=O	> 85
COc1cc2c(cc1OCCCC(=O)Nc1cc(C(=O)Nc3ccc4oc(C(=O)N5CCOCC5)cc4c3)n(C)c1)N=C[C@@H]1CCCN1C2=O	> 85

Tested on: not listed separately
Test: Selectivity ratio of cytotoxicity against human WI38 cells to MIC for Acinetobacter baumannii ATCC 17978
Type: toxicity, cell-based
Conditions: not given

SMILES	selectivity ratio
COc1cc2c(cc1OCCCC(=O)Nc1cc(C(=O)Nc3ccc4sc(C(=O)N5CCCCC5)cc4c3)n(C)c1)N=C[C@@H]1CCCN1C2=O	10
COc1cc2c(cc1OCCCC(=O)Nc1cc(C(=O)Nc3ccc4oc(C(=O)N5CCOCC5)cc4c3)n(C)c1)N=C[C@@H]1CCCN1C2=O	10

Tested on: not listed separately
Test: Selectivity ratio of cytotoxicity against human WI38 cells to MIC for Pseudomonas aeruginosa PAO1
Type: toxicity, cell-based
Conditions: not given

SMILES	selectivity ratio
COc1cc2c(cc1OCCCC(=O)Nc1cc(C(=O)Nc3ccc4sc(C(=O)N5CCCCC5)cc4c3)n(C)c1)N=C[C@@H]1CCCN1C2=O	10
COc1cc2c(cc1OCCCC(=O)Nc1cc(C(=O)Nc3ccc4oc(C(=O)N5CCOCC5)cc4c3)n(C)c1)N=C[C@@H]1CCCN1C2=O	10
